Measured values reported in patent publication US8501804B2, “Bicyclic compound” (Takeda Pharmaceutical Company Limited, priority 2008, dated 2013).

Legend:
human ACC2 (Nd) = molecular target: T1, human ACC2 (Nd) (Homo sapiens, UniProt O00763); assay: ACC2 inhibitory activity (malachite green); type: biochemical; settings: test compound 10 μM; for inhibition at 10 µM: read-out: ACC2 10 μM inhibitory rate (%)
T1 construct: His6 (from vector pFAST-BacHTa); made in house; host or cells: SF-9 insect cells, recombinant baculovirus BAC-ACC2 (Nd)
T1 sequence (O00763 117-2458 limits assumed): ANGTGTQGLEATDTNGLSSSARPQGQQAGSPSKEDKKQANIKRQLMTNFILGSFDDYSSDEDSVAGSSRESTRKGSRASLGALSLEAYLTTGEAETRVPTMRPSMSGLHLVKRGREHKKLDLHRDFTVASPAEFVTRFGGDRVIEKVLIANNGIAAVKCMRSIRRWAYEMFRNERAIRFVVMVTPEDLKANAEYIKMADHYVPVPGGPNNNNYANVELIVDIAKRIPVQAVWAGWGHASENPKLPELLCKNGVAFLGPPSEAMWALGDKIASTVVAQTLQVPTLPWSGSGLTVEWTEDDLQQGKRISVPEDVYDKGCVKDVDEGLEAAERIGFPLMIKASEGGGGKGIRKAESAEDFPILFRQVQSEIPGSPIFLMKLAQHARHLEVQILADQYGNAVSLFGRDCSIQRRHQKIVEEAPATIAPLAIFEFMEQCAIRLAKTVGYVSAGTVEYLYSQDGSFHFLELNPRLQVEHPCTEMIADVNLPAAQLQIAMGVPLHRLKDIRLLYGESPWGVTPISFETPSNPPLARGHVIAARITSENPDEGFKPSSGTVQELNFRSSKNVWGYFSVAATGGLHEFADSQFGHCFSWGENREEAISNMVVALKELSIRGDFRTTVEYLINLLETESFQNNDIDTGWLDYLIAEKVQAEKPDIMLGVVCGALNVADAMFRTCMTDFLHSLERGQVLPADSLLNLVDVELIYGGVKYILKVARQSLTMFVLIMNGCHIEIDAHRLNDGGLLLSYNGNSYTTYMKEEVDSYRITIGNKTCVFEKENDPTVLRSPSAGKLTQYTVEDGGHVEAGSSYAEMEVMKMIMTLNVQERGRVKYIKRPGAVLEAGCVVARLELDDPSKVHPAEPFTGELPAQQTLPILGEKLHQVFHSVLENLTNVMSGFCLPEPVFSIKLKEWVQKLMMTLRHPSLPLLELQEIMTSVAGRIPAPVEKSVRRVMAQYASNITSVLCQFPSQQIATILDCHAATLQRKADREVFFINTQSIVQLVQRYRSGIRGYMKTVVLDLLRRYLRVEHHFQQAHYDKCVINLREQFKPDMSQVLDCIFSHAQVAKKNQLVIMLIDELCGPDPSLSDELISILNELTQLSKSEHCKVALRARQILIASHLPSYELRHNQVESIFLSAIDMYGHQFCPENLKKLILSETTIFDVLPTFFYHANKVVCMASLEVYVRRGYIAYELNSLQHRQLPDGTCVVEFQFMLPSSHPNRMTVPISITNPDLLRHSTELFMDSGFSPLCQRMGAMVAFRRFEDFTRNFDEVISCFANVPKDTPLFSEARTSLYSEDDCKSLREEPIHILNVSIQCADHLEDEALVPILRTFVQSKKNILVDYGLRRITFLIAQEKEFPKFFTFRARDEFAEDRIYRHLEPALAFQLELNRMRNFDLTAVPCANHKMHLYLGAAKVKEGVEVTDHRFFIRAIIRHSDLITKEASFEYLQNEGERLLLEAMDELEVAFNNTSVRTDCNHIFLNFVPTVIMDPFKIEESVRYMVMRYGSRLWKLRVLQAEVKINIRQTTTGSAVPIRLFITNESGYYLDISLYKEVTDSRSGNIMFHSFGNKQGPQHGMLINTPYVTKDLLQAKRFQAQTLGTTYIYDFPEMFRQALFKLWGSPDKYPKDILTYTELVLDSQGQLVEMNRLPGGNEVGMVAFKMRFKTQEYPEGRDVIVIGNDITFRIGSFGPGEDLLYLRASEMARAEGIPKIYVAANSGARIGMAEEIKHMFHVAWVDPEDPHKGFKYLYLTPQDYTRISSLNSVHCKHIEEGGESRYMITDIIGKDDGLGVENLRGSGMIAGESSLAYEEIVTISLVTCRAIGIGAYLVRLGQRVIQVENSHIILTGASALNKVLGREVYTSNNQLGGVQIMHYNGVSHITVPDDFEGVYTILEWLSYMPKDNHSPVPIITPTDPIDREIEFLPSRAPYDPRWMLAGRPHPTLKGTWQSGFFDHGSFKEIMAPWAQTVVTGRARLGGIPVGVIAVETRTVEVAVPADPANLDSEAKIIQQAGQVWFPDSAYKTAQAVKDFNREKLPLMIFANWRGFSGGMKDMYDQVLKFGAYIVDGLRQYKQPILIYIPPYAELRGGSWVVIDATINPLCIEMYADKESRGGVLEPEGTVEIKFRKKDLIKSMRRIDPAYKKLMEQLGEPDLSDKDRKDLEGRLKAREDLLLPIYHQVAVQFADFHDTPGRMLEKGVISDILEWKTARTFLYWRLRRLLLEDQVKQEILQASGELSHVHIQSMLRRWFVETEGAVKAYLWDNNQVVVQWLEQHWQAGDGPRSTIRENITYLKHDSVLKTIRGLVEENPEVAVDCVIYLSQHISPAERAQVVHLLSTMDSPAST
Description: The ACC2 inhibitory action of the compound of the present invention was evaluated by the following method.
(1) Cloning of Human ACC2 Gene and Preparation of Recombinant Baculovirus
(§1) Human ACC2 gene was cloned by PCR using a human skeletal muscle cDNA library (Clontech) as a template and Primer 1 and Primer 2 shown below. Primer 1 and Primer 2 were prepared by adding SalI, XbaI restriction enzyme recognition sequences based on the information of the base sequence of human ACC2 gene (Genbank Accession U89344).
(§2) PCR was performed using Pyrobest DNA polymerase (TAKARA BIO INC.). The obtained PCR product was cloned to pT7 Blue vector (Novagen) and, after confirmation of the base sequence, digested with restriction enzymes SalI and XbaI. The obtained DNA fragment was inserted into pFAST-BacHTa (Invitrogen) digested with restriction enzymes SalI and XbaI to give expression plasmid ACC2/pFAST-BacHTa.
A plasmid for expression of ACC2 without a mitochondrial targeting sequence was prepared by PCR using the expression plasmid as a template, and Primer 3 (SalI restriction enzyme recognition sequence was added) and Primer 4 prepared by reference to the information of human ACC2 gene base sequence (Genbank Accession U89344).
as §2, with “Pyrobest-DNA” for “Pyrobest DNA”, “AflII.” for “XbaI.”, “ACC2/pFAST-BacHTa” for “pFAST-BacHTa (Invitrogen)”, “AflII” for “XbaI”, “ACC2mito7/pFAST-BacHTa.” for “ACC2/pFAST-BacHTa.”
Using the expression plasmid ACC2mito7/pFAST-BacHTa and BAC-TO-BAC Baculovirus Expression System (Invitrogen), virus stock BAC-ACC2 of recombinant Baculovirus (N terminal deleted (hereinafter Nd)) was prepared.
(2) Preparation of ACC2 (Nd) Protein
SF-9 cells (Invitrogen) were inoculated to a medium (2 L) for insect cells (Sf-900IISFM medium (Invitrogen) containing 10% fetal bovine serum (Trace), 50 mg/L Gentamicin (Invitrogen), 0.1% Pluronic F-68 (Invitrogen)) at 0.5×10^6 cells/mL, and cultured with shaking in Wave Bioreactor (Wave) at 27° C., 20 rpm, rocking angle 6°, oxygen concentration 30%.
On day 4 of the culture, 3 L of the medium for insect cells was added, the rocking angle was set to 8°, and the cells were cultured. On day 5 of the culture, 100 ml of recombinant Baculovirus BAC-ACC2 (Nd) was added, 5 L of the medium for insect cells was further added, the rocking angle was set to 11°, and the cells were cultured for 3 days. The culture medium was centrifuged at 1000×g for 10 min to give virus-infected cells. The cells were washed with phosphate buffered saline (Invitrogen) and centrifuged under the same conditions. The obtained cells were cryopreserved at −80° C.
The cryopreserved cells were thawed in ice and suspended in 900 ml of 25 mM HEPES buffer (pH 7.5) containing 10% Glycerol, 0.13 M NaCl, 1 mM EDTA, 25 mM Sodium β-Glycerophosphate and 1 mM Sodium Orthovanadate, and supplemented with Complete Protease Inhibitor (Nippon Boehringer Ingelheim Co., Ltd.). The obtained suspension was homogenized three times in a polytron homogenizer (Kinematica) at 20,000 rpm for 30 sec. The obtained cell disruption solution was clarified by centrifugation at 31000×g for 60 min, and filtered through a 0.45 μm filter. The filtrate was passed through a column packed with 60 mL of Ni-NTA Super Flow Gel (QUIAGEN) at a flow rate of about 5 mL/min. The column was washed with buffer A (50 mM HEPES (pH 7.5) containing 0.3 M NaCl), further washed with buffer A containing 20 mM Imidazole, and eluted with buffer A containing 100 mM Imidazole. The eluate was concentrated with Vivaspin 20 (Vivascience) with a molecular weight cut off of 30K. The obtained concentrate was dialyzed against 50 mM HEPES (pH 7.5) containing 10 mM MgCl2, 2 mM Dithiothreitol, 10 mM Tripotassium Citrate and 0.3 M NaCl. The inner dialysate was filtered through a 0.22 μm filter to give ACC2 (Nd). […]

human ACC1 = molecular target: T2, human ACC1 (Homo sapiens, UniProt Q13085); assay: ACC1 inhibitory activity (malachite green); type: biochemical; settings: test compound 10 μM; for inhibition at 10 µM: read-out: ACC1 10 μM inhibitory rate (%)
T2 construct: His6 (from vector pFAST-BacHTc); made in house; host or cells: SF-9 insect cells, recombinant baculovirus BAC-ACC1
Description: The ACC1 inhibitory action of the compound of the present invention was evaluated by the following method.
(1) Cloning of Human ACC1 Gene and Preparation of Recombinant Baculovirus
as §1, with “ACC1” for “ACC2”, “liver” for “skeletal muscle”, “NotI” for “XbaI”, “U19822).” for “U89344).”
as §2, with “NotI.” for “XbaI.”, “pFAST-BacHTc” for “pFAST-BacHTa”, “NotI” for “XbaI”, “ACC1/pFAST-BacHTc.” for “ACC2/pFAST-BacHTa.”
Using the expression plasmid ACC1/pFAST-BacHTc and BAC-TO-BAC Baculovirus Expression System (Invitrogen), virus stock BAC-ACC1 of recombinant Baculovirus was prepared.
(2) Preparation of ACC1 Protein
SF-9 cells (Invitrogen) were inoculated to a medium (1 L) for insect cells (Sf-900IISFM medium (Invitrogen) containing 10% fetal bovine serum (Trace), 50 mg/L Gentamicin (Invitrogen), 0.1% Pluronic F-68 (Invitrogen)) at 1×10^6 cells/mL, and cultured with shaking in 2 L meyer at 27° C., 100 rpm.
After 24 hr of the culture, 10 mL of recombinant Baculovirus BAC-ACC1 was added, and the cells were cultured for 3 days. The culture medium was centrifuged at 1000×g for 5 min to give virus-infected cells. The cells were washed with phosphate buffered saline (Invitrogen) and centrifuged under the same conditions. The obtained cells were cryopreserved at −80° C.
The cryopreserved cells were thawed in ice and suspended in 100 mL of 25 mM HEPES buffer (pH 7.5) containing 10% Glycerol, 0.13 M NaCl, 1 mM EDTA, 25 mM Sodium […] and 1 mM Sodium Orthovanadate, and supplemented with Complete Protease Inhibitor (Nippon Boehringer Ingelheim Co., Ltd.). The obtained suspension was homogenized three times in a polytron homogenizer (Kinematica) at 20,000 rpm for 30 sec. The obtained cell disruption solution was clarified by centrifugation at 185700×g for 50 min, and filtered through a 0.45 μm filter. The filtrate was passed through a column packed with 12 ml of Ni-NTA Super Flow Gel (QUIAGEN) at a flow rate of about 5 mL/min. The column was washed with buffer A (50 mM HEPES (pH 7.5) containing 0.3 M NaCl), further washed with buffer A containing 20 mM Imidazole, and eluted with buffer A containing 100 mM Imidazole. The eluate was concentrated with Vivaspin 20 (Vivascience) with a molecular weight cut off of 30K. The obtained concentrate was dialyzed against Sephadex G-25 (Amersham Biosciences, 358 mL) equilibrated with 50 mM HEPES (pH 7.5) containing 10 mM MgCl2, 2 mM Dithiothreitol, 10 mM Tripotassium Citrate and 0.3 M NaCl. The inner dialysate was concentrated with Vivaspin 20 (Vivascience) with molecular weight cut off of 30K, and concentrate was filtered through a 0.22 μm filter to give ACC1. The obtained ACC1 was cryopreserved at −80° C.
(3) Measurement of ACC1 Inhibitory Activity
ACC1 (0.93 mg/ml) obtained in the above-mentioned (2) was diluted with an enzyme reaction buffer (50 mM HEPES (pH 7.5), 10 mM MgCl2, 10 mM Tripotassium Citrate, 2 mM Dithiothreitol, 0.75 mg/ml Fatty acid free BSA) to a concentration of 8 μg/ml, and the mixture was added to each well of a 384 well assay plate (Nunc 265196) by 10 μl. A test compound was dissolved in dimethyl sulfoxide (DMSO) and the mixture was diluted with an enzyme reaction buffer and the resulting solution (5 μl) was added to each well. The mixture was incubated at 30° C. for 60 min. Then, a substrate solution (50 mM KHCO3, 200 μM ATP, 200 μM Acetyl-CoA, 5 μl) was added to each well, and the mixture was reacted at 30° C. for 20 min (test compound addition group). […]

Row | Compound | inhibition at 10 µM (human ACC2 (Nd)) | inhibition at 10 µM (human ACC1) | ACC2 10 μM inhibitory rate (%) (human ACC2 (Nd)) | ACC1 10 μM inhibitory rate (%) (human ACC1)
1 | CCCOc1ccc(CCc2ccc3cc(C(C)NC(C)=O)oc3c2)cc1 (stereo not shown) [Example 32, N-(1-{6-[2-(4-propoxyphenyl)ethyl]-1-benzofuran-2-yl}ethyl)acetamide] | 84% | 36% | – | –
2 | CCOc1ccc(COc2ccc3oc(C(C)NC(C)=O)nc3c2)cc1 (stereo not shown) [Example 42, N-(1-{5-[(4-ethoxybenzyl)oxy]-1,3-benzoxazol-2-yl}ethyl)acetamide] | 76% | 1% | – | –
3 | CCOc1ccc(COc2ccc3oc(C(C)NC(C)=O)cc3c2)cc1 (stereo not shown) [Example 18, N-(1-{5-[(4-ethoxybenzyl)oxy]-1-benzofuran-2-yl}ethyl)acetamide] | 85% | 15% | – | –
4 | CCCOc1ccc(C#Cc2ccc3c(c2)O[C@H]([C@H](C)NC(C)=O)C3)cc1 [Example 115, N-[(1S)-1-{(2S)-6-[(4-propoxyphenyl)ethynyl]-2,3-dihydro-1-benzofuran-2-yl}ethyl]acetamide] | 76% | 25% | – | –
5 | CCOc1ccc(COc2ccc3oc(C(C)NC(C)=O)cc3c2)c(F)c1 (stereo not shown) [Example 48, N-(1-{5-[(2-fluoro-4-ethoxybenzyl)oxy]-1-benzofuran-2-yl}ethyl)acetamide] | 78% | 10% | – | –
6 | CCOc1ccc(OCc2ccc3sc(C(C)NC(C)=O)nc3c2)cc1 (stereo not shown) [Example 37, N-(1-{5-[(4-ethoxyphenoxy)methyl]-1,3-benzothiazol-2-30 yl}ethyl)acetamide] | 77% | -4% | – | –
7 | CCOc1ccc(COc2ccc3sc(C(C)NC(C)=O)cc3c2)cc1 (stereo not shown) [Example 39, N-(1-{5-[(4-ethoxybenzyl)oxy]-1-benzothiophen-2-yl}ethyl)acetamide] | 80% | 17% | – | –
8 | CCOc1ccc(CCc2ccc3cc(C(C)NC(C)=O)oc3c2)cc1 (stereo not shown) [Example 20, N-(1-{6-[2-(4-ethoxyphenyl)ethyl]-1-benzofuran-2-yl}ethyl)acetamide] | – | – | 83% | 23%

Continued, values first:

Row | inhibition at 10 µM (human ACC2 (Nd)) | inhibition at 10 µM (human ACC1) | ACC2 10 μM inhibitory rate (%) (human ACC2 (Nd)) | ACC1 10 μM inhibitory rate (%) (human ACC1) | Compound
9 | 73% | 35% | – | – | CC(=O)N[C@H](C)[C@H]1Cc2ccc(CCc3ccc(OCC4CC4)cc3)cc2O1 (racemic) [Example 121, 1:1 mixture of N-{(1R)-1-[(2R)-6-{2-[4-(cyclopropylmethoxy)phenyl]ethyl}-2,3-dihydro-1-benzofuran-2-yl]ethyl}acetamide and N-{(1S)-1-[(2S)-6-{2-[4-(cyclopropylmethoxy)phenyl]ethyl}-2,3-dihydro-1-benzofuran-2-yl]ethyl}acetamide]
10 | 83% | 33% | – | – | CCOc1ccc(/C=C/c2ccc3cc(C(C)NC(C)=O)oc3c2)cc1 (stereo not shown) [Example 125, N-(1-{6-[(E)-2-(4-ethoxyphenyl)ethenyl]-1-benzofuran-2-yl}ethyl)acetamide]
11 | 88% | 42% | – | – | CC(=O)N[C@@H](C)[C@@H]1Cc2ccc(OCc3ccc(OCC4CC4)cc3F)cc2O1 [Example 145, N-{(1S)-1-[(2S)-6-{[4-(cyclopropylmethoxy)-2-fluorobenzyl]oxy}-2,3-dihydro-1-benzofuran-2-yl]ethyl}acetamide]
12 | 91% | 46% | – | – | CC(=O)NC(C)c1cc2cc(OCc3ccc(OCC4CC4)cc3)ccc2o1 (stereo not shown) [Example 132 (retention time longer), N-[1-(5-{[4-(cyclopropylmethoxy)benzyl]oxy}-1-benzofuran-2-yl)ethyl]acetamide]
13 | 88% | 48% | – | – | CC(=O)N[C@@H](C)[C@@H]1Cc2ccc(OCc3ccc(OCC4CC4)cc3)cc2O1 [Example 144, N-{(1S)-1-[(2S)-6-{[4-(cyclopropylmethoxy)benzyl]oxy}-2,3-dihydro-1-benzofuran-2-yl]ethyl}acetamide]
14 | 78% | 8% | – | – | CCOc1ccc(CCc2ccc3cc(C(C)NC(C)=O)oc3n2)cc1 (stereo not shown) [Example 123, N-(1-{6-[2-(4-ethoxyphenyl)ethyl]furo[2,3-b]pyridin-2-yl}ethyl)acetamide]
